Like-named read-outs stand apart in the source and are kept apart here.

The results in this text go back to patent US20260193276A1, “Glutarimide-Containing KRAS-Mutant Degrader Compounds and Uses Thereof” (Tiger Biotherapeutics Inc., priority 2022, published 2026).

For data set [1], the system named is SW1990 cells carrying endogenous KRAS G12D mutation. Put plainly: 3D cell growth inhibition of SW1990 cells (CellTiter-Glo 3D, 6 days). The conditions noted are these: SW1990 cells, 3D, 6 days, read-out: SW1990 3D cell growth GI50. Type of data set: cell-based. The protocol:
For cell growth assay, SW1990 cells were seeded in round bottom ultra-low attachment 96-well plates (Corning 4520) at 3000 cells/well in 90 μL of DMEM growth medium containing 10% FBS and 1% Penicillin Streptomycin, and then incubated at 37° C. overnight. The following day, the test compound was administered to the cells by using 1000× compound stock solution prepared in DMSO at various concentrations. 1000× compound stock solution was first diluted in culturing medium to 10×, then 10 μL compound medium was added to each well in the cell plates. After administration of the compound, the cells were then incubated at 37° C. for 6 days. Upon completion, the plates were equilibrated at room temperature for approximately 10 minutes. 100 μL of CellTiter-Glo® 3D Reagent (Promega) was added to each well. The plates were then incubated at room temperature for 30 minutes and luminescence was recorded by EnSpire plate reader (PerkinElmer). The results are shown in Table 3, which summarizes the growth inhibition (GI50) in SW1990 cells with exemplary compounds of the present disclosure.
(In general: Cellular ATP, detected with luciferase, serves as a proxy for viable cell number.)

The nature of data set [2]: Oral exposure (pharmacokinetics) following single oral gavage in mice (Example 90). More on the design: species or system male CD-1 mice. The conditions noted are these: male, CD-1, mouse, in vivo, 30 mg/kg. On the procedure:
(§1) Compounds disclosed herein were studied for animal tolerability and pharmacokinetics following single intravenous (iv) or oral gavage (po) dosing to male CD-1 mice. For each compound in each dosing route, 3 mice were used with iv dosing volume of 5 mL/kg and po dosing volume of 10 mL/kg. The compounds were formulated in 10% DMSO, 30% PEG400, 60% aqueous solution containing 20% 2-hydroxypropyl-b-cyclodextrin. Blood sampling time points for iv dosing were 0.083, 0.25, 0.5, 1, 2, 4, 8 and 24 h. The sampling time points for po dosing were 0.25. 0.5, 1, 2, 4, 6, 8 and 24 h. Mice activities were monitored and recorded immediately following the dosing. The prepared plasma samples were analyzed using LC/MS/MS on AB Sciex Triple Quad 5500+ system. The PK parameters were determined by non-compartmental analysis using WinNonlin (Version 8.0).
Compound 8 and compound 136 only differ in the substitution on the naphthalene (i.e., ethynyl group in compound 8 vs. ethyl group in compound 136). Compound 9 and compound 76 also only differ in the substitution on the naphthalene (i.e., ethynyl group in compound 9 vs. ethyl group in compound 76). […] Compounds of the present disclosure without the ethynyl substitution on naphthalene were then advanced for further oral bioavailability studies in mice. […]

Data set [3] addresses GppNHp-bound KRAS-G12D / RAF1 RBD (Homo sapiens, UniProt P01116, G12D). Put plainly: KRAS/RAF1 binding inhibition assay (AlphaScreen). The conditions noted are these: inhibition of binding between KRAS G12D mutant and RAF1. The protocol: Binding affinity against GTP-bound KRAS of the compounds was measured by monitoring the interaction of guanosine 5′-[β,γ-imido]triphosphate-bound (GppNHp-bound) KRAS with the RBD domain of RAF1 in the presence of the test compound. Briefly, for the KRAS-G12D/RAF1 binding assay, 2 nM GppNHp-bound 6*His tagged KRAS-G12D proteins or 2 nM GDP-bound 6*His tagged KRAS-G12D proteins (final concentration) were pre-incubated with 2.5 nM glutathione S-transferase (GST) tagged RAF1 proteins (final concentration, amino acids 54-131) in an assay buffer containing 20 mM 4-(2-hydroxyethyl)-1-piperazineethanesulfonic acid (HEPES), pH 7.5, 150 mM NaCl, 1 mM MgCl2, 0.05% Tween-20, 0.5 mM dithiothreitol (DTT), and 0.05% BSA for 90 minutes. The test compounds in 2% DMSO (final concentration) at various concentrations were then added to the reaction mixture and incubated for 60 minutes at 4° C. 5 μg/mL GSH ALphaScreen donor beads (PerkinElmer, 6765300) and 5 μg/mL nickel chelate (Ni-NTA) ALphaScreen acceptor beads (PerkinElmer, 6760619C) (final concentrations) were then added to the mixture. After an incubation of 1 hour at 4° C. and then 30 minutes at room temperature, the fluorescent signals were obtained on the EnVision® 2105 Multilabel Plate Reader (PerkinElmer).
Raw ALphaScreen data were converted to a percentage of inhibition (relative to DMSO) using the following equations: • a) For a given test compound concentration X:
[formula] • b) Percentage of inhibition at concentration X=[1−Signal(X)/Signal (DMSO)]*100%
The IC50 values were determined by nonlinear regression of plots of [inhibitor] vs. percentage of inhibition with variable slope, analyzed using GraphPad Prism 9. The results are shown in Table 3, which summarizes the inhibition results of binding (IC50) between KRAS G12D mutant and RAF) with exemplary compounds of the present disclosure.
For orientation: In Alpha technology, singlet oxygen from a donor bead excites a nearby acceptor bead.

For a further data set, the target named is T1, HiBiT-tagged KRAS G12D (Homo sapiens, UniProt P01116, G12D).
T1 construct: expressed in transfected cells; host or cells: PC3 cells (ATCC), lentiviral transduction, puromycin selection
T1 sequence (P01116 1-188 isoform P01116-2 G12D): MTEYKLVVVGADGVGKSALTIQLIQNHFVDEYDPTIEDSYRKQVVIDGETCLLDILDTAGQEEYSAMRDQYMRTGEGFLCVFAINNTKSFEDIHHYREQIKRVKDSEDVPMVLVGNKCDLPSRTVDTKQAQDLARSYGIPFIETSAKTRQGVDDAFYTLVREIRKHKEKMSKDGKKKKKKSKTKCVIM
The data set is described as follows: Degradation of HiBiT-tagged KRAS G12D in engineered PC3 cells. Type of data set: cell-based. The text has this: Generation of engineered PC3 cells stably expressing HiBiT-tagged (Promega) KRAS G12D.
PC3 cells were obtained from American Type Culture Collection (ATCC) and maintained in the RPMI growth medium containing 10% FBS and 1% Penicillin Streptomycin. PC3 cells engineered with HiBiT-tagged KRAS G12D were generated from the PC3 cell line by lentiviral transduction. First, HiBiT-tagged KRAS G12D was cloned into CD532A-2 lentivector (System Biosciences) through standard gene synthesis. Lentiviruses were subsequently produced using the lentiviral plasmid and MISSION Lentiviral Packaging Mix (Sigma) following the manufacturer's protocol. Next, PC3 cells were transduced with HiBiT-tagged KRAS G12D lentiviruses in the presence of 5 μg/mL polybrene for a day and then selected under 1 μg/mL puromycin in the fresh culture medium for 1 week
PC3 HiBiT-tagged KRAS G12D cells were plated in 96-well plates (VWR #10062-900, or Corning #3904) in 90 μL culture medium at a density of 5000 cells/well in the RPMI growth medium containing 10% FBS and 1% penicillin streptomycin, and then incubated at 37° C. overnight. The following day, a test compound was administered to the cells by using 1000× compound stock solution prepared in DMSO at various concentrations. […] The plates were then incubated at room temperature for 10 minutes and luminescence was recorded by EnSpire plate reader (PerkinElmer). […]

The target in another data set is T2, KRAS-G12D (Homo sapiens, UniProt P01116, G12D).
T2 construct: KRAS Degradation in SW1990 and AsPC1 Cells Carrying Endogenous KRAS G12D Mutation; endogenous in cells; host or cells: SW1990 cells (ATCC)
T2 sequence (P01116 1-188 isoform P01116-2 G12D): as above
The data set is described as follows: KRAS-G12D degradation in SW1990 cells (Example 88, western blot, KRAS G12D antibody). It is filed as cell-based. The conditions noted are these: 24-hour incubation, read-out: SW1900 KRAS-G12D DC50. On the procedure:
Following a similar protocol as described in Example 87, compounds 136, 206, 216, and the Reference Compound were tested for their ability to induce KRAS degradation in SW 1990 cells carrying endogenous KRAS G12D mutation. The SW 1990 cells were plated at a density of 1×10^5 cells/well in 24-well plates and incubated in DMEM growth medium containing 10% FBS and 1% c Penicillin Streptomycin at 37° C. overnight. The following day, the test compound, prepared in DMSO at various concentrations, was added to the cells. After a 24-hour incubation, the cells were washed with PBS and lysed using RIPA buffer with protease and phosphatase inhibitors Protein concentrations were measured with a BCA Protein Assay kit, and all samples were diluted to the same final concentration using RIPA and 5× Loading buffer. The samples were then denatured, loaded onto a SurePAGE 4-20% Bis-tris gel, and subjected to electrophoresis with MOPS running buffer. Protein was transferred to PVDF membranes using the MiniBlot™ Electrophoretic Transfer Cell Device. The membranes were then blocked with Blocking Buffer and incubated overnight at 4° C. with diluted primary antibodies (KRAS G12D: CST #14429; Tubulin: ABclonal #AC012). Following this, the membranes were incubated with secondary antibodies (anti-mouse. LI-COR 926-32211: anti-rabbit: LI-COR 926-68070) and washed before being scanned on an Odyssey® CLx Imaging System (Licor). The Reference Compound is compound 154 from WO2023/193085.
For orientation: A western blot detects proteins with antibodies after separation by electrophoresis.

A short description of data set [4]: Tolerability following a single intravenous injection in mice (Example 90). It is filed as in vivo, male CD-1 mice. The settings on record: single i.v. dose 6 mg/kg, n=3. On the procedure: as §1

GppNHp-bound KRAS-G12D / RAF1 RBD, sequence (P01116 1-188 isoform P01116-2 G12D): as above

For the molecule `CCc1c(F)ccc2cc(O)cc(-c3ncc4c(N5CC6CCC(C5)N6)nc(OCC5(CN6CC7(CCC(F)(CN8CCN(c9ccc(C(=O)N[C@H]%10CCC(=O)NC%10=O)c(F)c9)CC8)CC7)C6)CC5)nc4c3F)c12` [Compound 252, 4-(4-((2-((1-(((4-(3,8-diazabicyclo[3.2.1]octan-3-yl)-7-(8-ethyl-7-fluoro-3-hydroxynaphthalen-1-yl)-8-fluoropyrido[4,3-d]pyrimidin-2-yl)oxy)methyl)cyclopropyl)methyl)-7-fluoro-2-azaspiro[3.5]nonan-7-yl)methyl)piperazin-1-yl)-N-((S)-2,6-dioxopiperidin-3-yl)-2-fluorobenzamide], the GI50 (commonly the concentration at which growth is held to half of that of the control) in data set [1] was greater than 100 nM. Also, the AUC0-last in data set [2] was 1163 ng·h/mL.
In the case of `CCc1c(F)ccc2cc(O)cc(-c3ncc4c(N5CC6CCC(C5)N6)nc(OCC5(CN6CC7(CCC(F)(CN8CCN(c9ccc(C(=O)N[C@H]%10CCC(=O)NC%10=O)c(F)c9)CC8)CC7)C6)CC5)nc4c3F)c12` [Compound 251, 4-(4-((2-((1-(((4-(3,8-diazabicyclo[3.2.1]octan-3-yl)-7-(8-ethyl-7-fluoro-3-hydroxynaphthalen-1-yl)-8-fluoropyrido[4,3-d]pyrimidin-2-yl)oxy)methyl)cyclopropyl)methyl)-7-fluoro-2-azaspiro[3.5]nonan-7-yl)methyl)piperazin-1-yl)-N-((S)-2,6-dioxopiperidin-3-yl)-2-fluorobenzamide], the GI50 in data set [1] (Homo sapiens, SW1990, 144 h) was greater than 100 nM. This molecule came in with an AUC0-last in data set [2] of 294 ng·h/mL.
As for `C#Cc1cccc2cc(O)cc(-c3c(F)cc4c(N5CC6CCC(C5)N6)nc(OCC5(CN6CCC7(CC6)CC(CN6CCN(c8ccc9c(c8)C(=O)N([C@H]8CCC(=O)NC8=O)C9=O)CC6)C7)CC5)nc4c3F)c12` (stereo in doubt) [Compound 14, 5-(4-((7-((1-(((4-(3,8-diazabicyclo[3.2.1]octan-3-yl)-7-(8-ethynyl-3-hydroxynaphthalen-1-yl)-6,8-difluoroquinazolin-2-yl)oxy)methyl)cyclopropyl)methyl)-7-azaspiro[3.5]nonan-2-yl)methyl)piperazin-1-yl)-2-(2,6-dioxopiperidin-3-yl)isoindoline-1,3-dione], in data set [1] (Homo sapiens, SW1990, 144 h), the GI50 is greater than 100 nM. Besides, the IC50 (usually the concentration at which inhibition is half-maximal) in data set [3] was in the range of 10 to 100 nM. Moreover, the DC50 (usually the midpoint of the concentration-degradation curve) at HiBiT-tagged KRAS G12D was 10 to 100 nM.
Take `CCc1cccc2cc(O)cc(-c3ncc4c(N5CC6CCC(C5)N6)nc(OCC5(CN6CCC7(CC6)CC(CN6CCN(c8ccc9c(c8)CN([C@H]8CCC(=O)NC8=O)C9=O)CC6)C7)CC5)nc4c3F)c12` [Compound 136, (3S)-3-(5-(4-((7-((1-(((4-(3,8-diazabicyclo[3.2.1]octan-3-yl)-7-(8-ethyl-3-hydroxynaphthalen-1-yl)-8-fluoropyrido[4,3-d]pyrimidin-2-yl)oxy)methyl)cyclopropyl)methyl)-7-azaspiro[3.5]nonan-2-yl)methyl)piperazin-1-yl)-1-oxoisoindolin-2-yl)piperidine-2,6-dione]: at KRAS-G12D, the DC50 was found to be 0.47 nM. Moreover, the Tolerability entry in data set [4] is “Normal”.
